Experimental data reported in paper PMC3584109, “Protective Effect of Borage Seed Oil and Gamma Linolenic Acid on DNA: In Vivo and In Vitro Studies” (PLoS ONE, 2013).
Where two headings read alike, the source gives them in different places. Marks after values point to notes of the source that are not given here.

Tests used:
D. melanogaster [1] = assay: Toxicity assay: survival of adults from treated 72 h old larvae; format: in vivo, Drosophila melanogaster; conditions: for average toxicities (survival): average over tested concentrations
Protocol: Crosses were performed with optimally fertile virgin females of the flr3/TM3, Bd^s strain and mwh/mwh males. After 8 h egg-laying, 72±3 h old larvae were washed in distilled water, transferred to fresh vials with 0.85 g Drosophila Instant Medium (formula 4–24, Carolina Biological Supply, Burlington NC, USA) which were wetted with 4 ml after of put solutions of increasing concentrations of the borage seed oil and GLA. […] Taking into account the average daily food intake of D. melanogaster (1 mg/day) and the average body weight of D. melanogaster individuals (1 mg), the concentration range for both borage seed oil and GLA were calculate to fit them into the recommended fat daily intake for humans (60 g of total fat/day for 60 kg human body weight). Emerging adults of all groups were counted and stored in 70% ethanol to be analysed. Procedures are: 1) Toxicity assays evaluated (number of individuals born in treatment/number of individuals born in the negative control)x100.

D. melanogaster [2] = conditions: in vivo
Protocol: (§1) Analysis of the genotoxic and antigenotoxic activities of borage seed oil and GLA, was evaluated by the Drosophila SMART test. Two different Drosophila melanogaster strains carrying visible wing genetic markers were used: the flare (flr) strain flr^3/ln (3LR) TM3, Bd^s and the multiple wing-hair (mwh) strain mwh/mwh. The marker multiple wing hairs (mwh, 3_0.3) is a recessive mutation that is viable in homozygous flies, producing multiple hairs per cell instead of the wild type single-hair trichome. The marker flare (flr^3, 3_38.3) is a recessive mutation which produces individual wing hairs that are malformed. The flr^3 allele is retained via a balancer chromosome carrying multiple inversions and a dominant marker which is homozygous lethal (TM3, Bd^S: Third Multiple 3, Beaded-Serrate). Additional information on genetic markers can be found in [31].
(§2) Crosses were performed with optimally fertile virgin females of the flr3/TM3, Bd^s strain and mwh/mwh males. After 8 h egg-laying, 72±3 h old larvae were washed in distilled water, transferred to fresh vials with 0.85 g Drosophila Instant Medium (formula 4–24, Carolina Biological Supply, Burlington NC, USA) which were wetted with 4 ml after of put solutions of increasing concentrations of the borage seed oil and GLA. Test groups consisting of 100 larvae each were: (i) negative control (distilled water); (ii) mutagenic positive control (hydrogen peroxide 0.12 M); (iii) 5 vials with increasing concentrations of borage seed oil (12.5, 18.7, 31.2, 62.5 and 125 µl/ml); and (iv) 5 vials with increasing concentrations of GLA (8.9, 13, 22, 45 and 90 mM). Taking into account the average daily food intake of D. melanogaster (1 mg/day) and the average body weight of D. melanogaster individuals (1 mg), the concentration range for both borage seed oil and GLA were calculate to fit them into the recommended fat daily intake for humans (60 g of total fat/day for 60 kg human body weight). Emerging adults of all groups were counted and stored in 70% ethanol to be analysed. Procedures are: 1) Toxicity assays evaluated (number of individuals born in treatment/number of individuals born in the negative control)x100. 2) Genotoxicity assays evaluated mutation rate diagnosis of different groups and 3) Antigenotoxicity testing, combined treatments were performed as previously described by Anter et al., 2011 [32], by using hydrogen peroxide 0.12 M as the genotoxicant and the concentrations of borage seed oil and GLA mentioned above in groups (iii) and (iv), evaluating mutation rate diagnosis of different treatments.
(§3) Marker-heterozygous genotypes (mwh/flr^3) were mounted on slides with Faurés solution. Both dorsal and ventral surfaces of the wings containing 22,000 cells were screened under a photonic microscope at 400× magnification for the occurrence of individual spots (mwh or flr phenotype) or twin spots (mwh clone adjacent to flr clone). […] Large individual spots with three or more cells showing mwh or flr phenotypes corresponded to mutational events occurring earlier during larvae development. Twin spots with two juxtaposed clones corresponded uniquely to recombination events between the flr^3 gene and the centromere.
(§4) For the evaluation of genotoxic effects, the frequencies of spots per fly of each treated series were compared to the concurrent negative control for each class of mutational clone. A multiple-decision procedure was used to categorize results as positive, weakly positive, inconclusive, or negative. Statistical analyses were carried out for single, large, twin and total number of spots recovered. Inconclusive and positive data were evaluated by the non-parametric U test of Mann, Whitney and Wilcoxon according to Frei and Würgler 1995 [36]. The inhibition percentage for each compound and treatment was calculated following Abraham, 1994 [37] (hydrogen peroxide alone - substance assayed + hydrogen peroxide / hydrogen peroxide alone) × 100.

D. melanogaster [3] = conditions: for % of inhibition: calculated according to Abraham (1994)
Protocol: as §1, §2, §3, §4

HL60 cells = assay: Cytotoxicity assay, Trypan Blue dye exclusion; format: cell-based; conditions: Homo sapiens, HL-60, 72 h, read-out: IC50 (concentration causing 50% inhibition of cell growth)
Protocol: The human promyelocytic leukaemia cell line HL60 was obtained from Dr. José M. Villalba Montoro (Department of Cell Biology, Univ. Cordoba, Spain), [34]. HL60 cells were incubated in RPMI-1640 medium (Cat N° A1049101, Invitrogen) supplemented with: L-glutamine 200 mM, (Cat N° G7513, Sigma-Aldrich, St. Louis, MO) antibiotics 100× (Cat N° A5955, Sigma-Aldrich, St. Louis, MO) and 10% heat-inactivated foetal bovine serum (Cat N° SO1805, Linus). Cells were maintained at 37°C in an atmosphere of 5% CO2. Cultures were plated at a density of 12.5×10^4cells/ml in 40 ml culture bottles (25 cm^2) and passed every 2 days.
For the assessment of cell viability, HL60 cells were placed in 12 well culture plates (1×10^5 cells/ml) and treated for 72 h with increasing concentrations of borage seed oil and GLA. Cell viability was determined by the Trypan Blue dye exclusion test (T8154, Sigma-Aldrich, St. Louis, MO). Cells were counted by adding an aliquot of 10 µl of the culture to 10 µl of the Trypan Blue dye. The mix was counted under a light inverted microscope using a Neubauer chamber (AE30/31, Motic). Aliquots were taken after 24, 36, 48, 60 and 72 h incubation. […] Curves are expressed as the percentage of survival with respect to controls at 72 h of growth. […]

D. melanogaster [4] = assay: Longevity assay (life span and health span); format: in vivo, Drosophila melanogaster; conditions: all assayed concentrations of GLA
Protocol: The F1 progeny from […]^3 parental strains produced by 24 h egg-laying in yeast was used. Longevity experiments were carried out at 25°C, following the procedure described by Chavous et al., 2001 [33]. Briefly, synchronised transheterozygous 72±12 h old larvae were washed in distilled water and separated into groups of 100 individuals in vials with a mixture of 0.85 g Drosophila Instant Medium and 4 ml of the different concentrations of the two substances selected. […] Three replicates were used during the complete life span for each control and concentration established. The number of survivors was counted and the medium renewed twice a week. In addition, the Kaplan-Meier estimates of the survival function for each concentration and respective control are plotted as survival curves. Statistical analyses and significance of the curves were assessed using the SPSS 15.0 statistics software (SPSS Inc. Headquarters, Chicago, IL, USA) using the Log-Rank (Mantel-Cox) method.

[5] = tested on: human hepatoma HepG2 cells (E9 cells); parameters: method as in PMID 9660301; conditions: cited from earlier work
[6] = tested on: leukocytes (HL-60, Jurkat and Raji cells); parameters: method as in PMID 12489694; conditions: cited from earlier work

Structure (SMILES): CCCCC/C=C\C/C=C\C/C=C\CCCCC(=O)O [GLA, all cis-6,9,12-octadecatrienoic acid]
- Survival % Simple treatment (D. melanogaster [1]; GLA 8.9 mM (lowest concentration)): 99%
- Survival % Simple treatment (D. melanogaster [1]; GLA 8.9 mM (lowest concentration), listed as Gamma-linolenic acid): 99.25%
- Survival % Combined Treatment (D. melanogaster [1]; GLA 8.9 mM + 0.12 M hydrogen peroxide): 48.88*** %
- Survival % Simple treatment (D. melanogaster [1]; GLA 13 mM): 66.66*** %
- Survival % Combined Treatment (D. melanogaster [1]; GLA 13 mM + 0.12 M hydrogen peroxide): 22.22*** %
- Survival % Simple treatment (D. melanogaster [1]; GLA 22 mM): 39.25*** %
- Survival % Combined Treatment (D. melanogaster [1]; GLA 22 mM + 0.12 M hydrogen peroxide): 39.25*** %
- Survival % Simple treatment (D. melanogaster [1]; GLA 45 mM): 50.37*** %
- Survival % Combined Treatment (D. melanogaster [1]; GLA 45 mM + 0.12 M hydrogen peroxide): 37.77*** %
- Survival % Simple treatment (D. melanogaster [1]; GLA 90 mM): 20.74*** %
- Survival % Combined Treatment (D. melanogaster [1]; GLA 90 mM + 0.12 M hydrogen peroxide): 32.59*** %
- decrease in survival (D. melanogaster [1]; GLA, next higher concentration after the lowest (13 mM)): 66%
- toxicity to D. melanogaster (D. melanogaster [1]; lowest concentration of GLA): non-toxicity
- average toxicities (survival) (D. melanogaster [1]; plus hydrogen peroxide as a toxicant): 31%
- average toxicities (survival) (D. melanogaster [1]; simple treatment): 55%
- weighted average of induced spots/wing (D. melanogaster [2]; Drosophila melanogaster): 0.23 spots/wing
- genotoxicity (D. melanogaster [2]): non-genotoxic
- Mutation rate (Spots per wing) Large single spots (>2 cells) m = 5 (D. melanogaster [3]; GLA 8.9 mM + H2O2 0.12 M): 0.02 (1) spots per wing
- Mutation rate (Spots per wing) Small single spots (1–2 cells) m = 2 (D. melanogaster [3]; GLA 8.9 mM + H2O2 0.12 M): 0.3 (15) spots per wing
- Mutation rate (Spots per wing) Total spots m = 2 (D. melanogaster [3]; GLA 8.9 mM + H2O2 0.12 M): 0.32 spots per wing
- Mutation rate (Spots per wing) Twin spots m = 5 (D. melanogaster [3]; GLA 8.9 mM + H2O2 0.12 M): 0 spots per wing
- % of inhibition (D. melanogaster [3]; GLA 8.9 mM + H2O2 0.12 M): 37%
- Mutation rate (Spots per wing) Large single spots (>2 cells) m = 5 (D. melanogaster [3]; GLA 13 mM + H2O2 0.12 M): 0 spots per wing
- Mutation rate (Spots per wing) Small single spots (1–2 cells) m = 2 (D. melanogaster [3]; GLA 13 mM + H2O2 0.12 M): 0.25 (3) spots per wing
- Mutation rate (Spots per wing) Total spots m = 2 (D. melanogaster [3]; GLA 13 mM + H2O2 0.12 M): 0.25 spots per wing
- Mutation rate (Spots per wing) Twin spots m = 5 (D. melanogaster [3]; GLA 13 mM + H2O2 0.12 M): 0 spots per wing
- % of inhibition (D. melanogaster [3]; GLA 13 mM + H2O2 0.12 M): 51%
- Mutation rate (Spots per wing) Large single spots (>2 cells) m = 5 (D. melanogaster [3]; GLA 22 mM + H2O2 0.12 M): 0 spots per wing
- Mutation rate (Spots per wing) Small single spots (1–2 cells) m = 2 (D. melanogaster [3]; GLA 22 mM + H2O2 0.12 M): 0.39 (11) spots per wing
- Mutation rate (Spots per wing) Total spots m = 2 (D. melanogaster [3]; GLA 22 mM + H2O2 0.12 M): 0.42 spots per wing
- Mutation rate (Spots per wing) Twin spots m = 5 (D. melanogaster [3]; GLA 22 mM + H2O2 0.12 M): 0.03 (1) spots per wing
- % of inhibition (D. melanogaster [3]; GLA 22 mM + H2O2 0.12 M): 17%
- Mutation rate (Spots per wing) Large single spots (>2 cells) m = 5 (D. melanogaster [3]; GLA 45 mM + H2O2 0.12 M): 0.03 (1) spots per wing
- Mutation rate (Spots per wing) Small single spots (1–2 cells) m = 2 (D. melanogaster [3]; GLA 45 mM + H2O2 0.12 M): 0.19 (5) spots per wing
- Mutation rate (Spots per wing) Total spots m = 2 (D. melanogaster [3]; GLA 45 mM + H2O2 0.12 M): 0.26 spots per wing
- Mutation rate (Spots per wing) Twin spots m = 5 (D. melanogaster [3]; GLA 45 mM + H2O2 0.12 M): 0.03 (1) spots per wing
- % of inhibition (D. melanogaster [3]; GLA 45 mM + H2O2 0.12 M): 49%
- Mutation rate (Spots per wing) Large single spots (>2 cells) m = 5 (D. melanogaster [3]; GLA 90 mM + H2O2 0.12 M): 0.06 (1) spots per wing
- Mutation rate (Spots per wing) Small single spots (1–2 cells) m = 2 (D. melanogaster [3]; GLA 90 mM + H2O2 0.12 M): 0.18 (3) spots per wing
- Mutation rate (Spots per wing) Total spots m = 2 (D. melanogaster [3]; GLA 90 mM + H2O2 0.12 M): 0.25 spots per wing
- Mutation rate (Spots per wing) Twin spots m = 5 (D. melanogaster [3]; GLA 90 mM + H2O2 0.12 M): 0 spots per wing
- % of inhibition (D. melanogaster [3]; GLA 90 mM + H2O2 0.12 M): 51%
- antigenotoxicity (D. melanogaster [3]; compared to hydrogen peroxide): antimutagenic
- inhibitory potential against hydrogen peroxide, weighted average (D. melanogaster [3]; over all concentrations): 38.1%
- IC50 (HL60 cells): 87 µM
- effect on life span (D. melanogaster [4]): decreased the mean survival time significantly

Structure (SMILES): CCCCC/C=C\C/C=C\C/C=C\C/C=C\CCCC(=O)O [arachidonic acid]
- toxicity to E9 cells ([5]; pretreatment with 0.03 mM): significant toxicity
- concentrations with necrotic effect ([6]; high concentrations): 400 to 1600 µM
- concentrations with apoptotic effect ([6]; low concentrations): 10 to 400 µM

Structure (SMILES): OO [hydrogen peroxide]
- Survival percentage for 0.12 M hydrogen peroxide alone treatments (D. melanogaster [1]; 0.12 M hydrogen peroxide alone): 84.44^(4) %
- Mutation rate (Spots per wing) Large single spots (>2 cells) m = 5 (D. melanogaster [2]): 0.03 (12) spots per wing
- Mutation rate (Spots per wing) Small single spots (1–2 cells) m = 2 (D. melanogaster [2]): 0.46 (126) spots per wing
- Mutation rate (Spots per wing) Total spots m = 2 (D. melanogaster [2]): 0.51 spots per wing
- Mutation rate (Spots per wing) Twin spots m = 5 (D. melanogaster [2]): 0.01 (3) spots per wing
- N° of emerging adults (D. melanogaster [2]): 328
- Total spots diagnosis (D. melanogaster [2]): +
- Total spots diagnosis (D. melanogaster [3]; in vivo): +

Structure (SMILES): CCCCCCCC/C=C\CCCCCCCC(=O)O [oleic acid, cis-9 octadecenoic]
- toxicity to E9 cells ([5]; 0.05 mM): no significant toxicity
